# Measurements reported in patent publication US4236015A, “1-(2-Acylaminophenyl)imidazoles” (Westwood Pharmaceuticals, Inc., priority 1979, dated 1980).
# Tests used:
# T. agelloi = assay: Antifungal activity, agar dilution method; assay type: cell-based, Trichophyton ajelloi
# Method: (§1) Various compounds of this invention display antifungal and anti-yeast activity.
# (§2) In Table IX below are listed the antifungal activity of a number of compounds encompassed in the present invention. These were determined by the agar dilution method as described in Chapters 2 and 3 of Methods in Microbiology, Vol. 7B, edited by J. R. Norris and D. W. Ribbons, Academic Press, New York, 1972.
# [1] = tested on: Trichophyton mentagrophytes; assay: Antifungal activity, agar dilution method; assay type: cell-based, Trichophyton mentagrophytes (ATCC No. 8757 and 9129)
# Method: as §1, §2
# Trichophyton rubrum = assay: Antifungal activity, agar dilution method; assay type: cell-based, Trichophyton rubrum (ATCC No. 10218 and 14001)
# Method: as §1, §2
# [2] = tested on: cell-mediated immune response to the antigen, Mycobacterium tuberculosis H37Ra; assay: Delayed hypersensitivity test; assay type: in vivo, mouse; conditions: for D.H.S. (ED60): s.c., mice, 60% reduction of edema of cell-mediated immune response vs control
# Method: The immunosuppressant activities of the compounds of this invention were determined via the hemolysin test in mice and by the delayed hypersensitivity test. The hemolysin test used is that described in Methods in Immunology, edited by D. H. Campbell et al, W. A. Benjamin, New York 1963 pages 172-175, and measures humeral or antibody response. The delayed hypersensitivity test measures the effect of a test compound on the ability of a subject mouse to mount a cell-mediated immune response to the antigen, Mycobacterium tuberculosis H37Ra. The mouse is sensitized to the antigen by subcutaneous administration in the base of the tail. The development of the delayed hypersensitivity response may be measured at any time beginning six days after sensitization but is usually done on the ninth day as follows: The right hind paw is injected with purified protein derivative (tuberculin) while the left hind paw (control) receives physiological saline. Both paw volumes are measured after twenty-four hours and significant increase in the volume of the right hind paw is taken as a measure of an effective delayed hypersensitivity response. All compounds were administered by the subcutaneous route.
# The D.H.S. (ED60) mg./kg. s.c. value appearing in column 3 is an expression of the effectiveness of the drug in reducing the edema that accompanies the cell-mediated immune response. It is a measure of the number of milligrams per kilogram of body weight of the drug administered subcutaneously which is required to reduce the edema of the cell-mediated immune response by 60% when compared to the control.
# [3] = tested on: humeral or antibody response; assay: Hemolysin test in mice; assay type: in vivo; conditions: s.c., 50% reduction of antibody activity vs control
# rat paw edema = assay: Rat paw edema assay, oral dosing; assay type: in vivo; conditions: 4 hours
# Method: (§3) The anti-inflammatory activity of representative compounds of this invention was determined by the rat paw edema assay both by local administration (Table XI below) and by oral dosing (Table XII below). For the oral dosing, the procedure of C. A. Winter, E. A. Risley and G. W. Nuss, Proc. Soc. Exp. Biol. Med. 111, 544 (1962) was employed with measurement taken four hours after the drug was administered. The local administration tests were carried out similarly except the irritant (carrageenan) and the test compound were injected simultaneously at time zero. Tables XI and XII report the anti-inflammatory activity of the compounds tested as % difference in the edema or swelling as compared with the control. These Tables also give the response in many instances of more than one dose level of the same drug.
# Candida albicans = assay: Antifungal activity, agar dilution method; assay type: cell-based, Candida albicans (ATCC No. 10231)
# Method: as §1, §2
# Candida tropicalis = assay: Antifungal activity, agar dilution method; assay type: cell-based
# Method: as §1, §2
# [4] = tested on: carrageenan rat paw edema; assay: Rat paw edema assay, local administration; assay type: in vivo; conditions: 100 mg/kg
# Method: as §3
Structure (SMILES),"Parts Per Million Inhibitions, T. agelloi (T. agelloi) [Parts Per Million]","Parts Per Million Inhibitions, T. mentagrophytes [1] [Parts Per Million]","Parts Per Million Inhibitions, T. rubrum (Trichophyton rubrum) [Parts Per Million]","ED60 ([2]; Mus musculus, sc, read-out: D.H.S. (ED60)) [mg/kg]",HL(ED50) [3] [mg/kg],D.H.S. (ED60) [2] [mg/kg],Difference from Control (rat paw edema; 100 mg/kg) [%],Difference from Control (rat paw edema; 400 mg/kg) [%],"Parts Per Million Inhibitions, C. albicans (Candida albicans) [Parts Per Million]","Parts Per Million Inhibitions, C. tropicalis (Candida tropicalis) [Parts Per Million]",% Difference from Control [4] [%]
CCCCCCCCCC(=O)Oc1ccc(-c2nc3ccccc3n3ccnc23)cc1 [Compound 165],100,100,100,,,,,,,,
c1ccc(Oc2ccc(-c3nc4ccccc4n4ccnc34)cc2)cc1 [Compound 219],,,,< 32,,,,,,,
c1ccc(-c2ccc(-c3nc4ccccc4n4ccnc34)cc2)cc1 [Compound 135],100,100,,,0.033,0.22,,,,,
COc1cc(OC)cc(-c2nc3ccccc3n3ccnc23)c1 [Compound 139],,100,,,3.0,> 50,-22,-25,,,
FC(F)(F)c1cccc(-c2nc3ccccc3n3ccnc23)c1 [Compound 136],,100,,,2.7,> 50,-9,-25,,,
Cc1cccc(-c2nc3ccccc3n3ccnc23)c1 [Compound 133],8,8,8,,0.75,32,-17,,100,100,
Cc1ccccc1-c1nc2ccccc2n2ccnc12 [Compound 132],100,100,,,,,-76,,,,
CC(C)(C)c1ccc(-c2nc3ccccc3n3ccnc23)cc1 [Compound 137],100,100,,,< 0.125,3.2,-26,,,,
Cc1ccc(-c2nc3ccccc3n3ccnc23)cc1 [Compound 134],100,16,,,0.5,7.2,-43,,,,
Clc1ccc(-c2nc3ccccc3n3ccnc23)cc1 [Compound 140],,,< 0.5,,0.26,1.15,-35,,,,-78
